Here are results for 44 compounds from ChEMBL document CHEMBL3301546, “MMV Malaria Box yeast growth screening”.

Holding throughout (format): functional
The subject of assay [1] is Saccharomyces cerevisiae. In words: (§1) MMV: Growth assays were conducted using the prototrophic S. cerevisiae strain JHY222. Each MMV compound (0.1 mM) was tested in rich media containing dextrose as a carbon source (Yeast Extract, Peptone, Dextrose; YPD). The growth rate in the presence of each MMV compound was calculated as follows: (i) the first 10 OD readings were averaged and subtracted from all OD readings of the corresponding curve to set the baseline of the growth curve to zero, and (ii) the area under the curve (AUC) was then calculated as the sum of all OD readings. […] A relative growth value was calculated as follows: AUC(DRUG) - AUC(DMSO)/AUC(DMSO); where AUC(DMSO) represents growth measured in a DMSO control well that was on the same microtiter plate of the drug-treated culture.

For assay [2], the system named is Saccharomyces cerevisiae. Described as §1, with “minimal” for “rich”, “Nitrogen Base,” for “Extract, Peptone,”, “YNBD).” for “YPD).”.
For assay [3], the system named is Saccharomyces cerevisiae. The assay is described as §1, with “minimal” for “rich”, “ethanol and glycerol” for “dextrose”, “as” for “as a”, “sources” for “source”, “Nitrogen Base, Ethanol, Glycerol; YNBEG).” for “Extract, Peptone, Dextrose; YPD).”.

For `O=C(NC1CCCCC1)C(c1cccs1)N(CCc1ccccc1)C(=O)c1ccco1` (configuration not stated), the “Relative Growth” value in the assay with Saccharomyces cerevisiae [1] is -0.0109; with Saccharomyces cerevisiae [2] it was -0.1735; in the assay with Saccharomyces cerevisiae [3], -0.2518.

Turning to `CN(C)CCNc1cc(-c2ccccc2)nc2ccccc12`, the “Relative Growth” value with Saccharomyces cerevisiae [1] is -0.0237; in the assay with Saccharomyces cerevisiae [2], 0.1058; in the assay with Saccharomyces cerevisiae [3], 0.0694.

Consider `COc1cccc(-c2nn(C)c3sc(C(=O)NCCN4CCN(c5ccccc5F)CC4)cc23)c1`, for which the “Relative Growth” value was 0.1401 in the assay on Saccharomyces cerevisiae [1], -0.0156 in the assay with Saccharomyces cerevisiae [2] and 0.0691 in the assay on Saccharomyces cerevisiae [3].

With `CN1CCN(c2nc(Nc3ccc(O)cc3)nc3ccccc23)CC1.Cl`, the “Relative Growth” value in the assay with Saccharomyces cerevisiae [1] is recorded as -0.0029; in the assay with Saccharomyces cerevisiae [2], -0.0206; in the assay on Saccharomyces cerevisiae [3], -0.0432.

Consider `Cc1cc(Nc2ccc(Cl)cc2)n2nc(C(F)(F)F)nc2n1`, for which the “Relative Growth” value was 0.0103 in the assay on Saccharomyces cerevisiae [1], 0.0221 in the assay with Saccharomyces cerevisiae [2] and -0.0099 in the assay on Saccharomyces cerevisiae [3].

With `O=c1cc(NC2CCN(CCCc3ccccc3)CC2)c2cc(Cl)ccc2o1`, the “Relative Growth” value is -0.0193 in the assay with Saccharomyces cerevisiae [1], 0.014 with Saccharomyces cerevisiae [2] and 0.0246 in the assay on Saccharomyces cerevisiae [3].

Regarding `CCCN(CCC)CC(O)COc1ccccc1C(=O)Nc1ccccc1` (configuration not stated), the “Relative Growth” value in the assay on Saccharomyces cerevisiae [1] was -0.0395; in the assay with Saccharomyces cerevisiae [2] it was 0.0118; in the assay on Saccharomyces cerevisiae [3], 0.0655.

Consider `OC(Cn1nnc2ccccc21)Cn1c2ccc(Br)cc2c2cc(Br)ccc21` (configuration not stated), for which the figures for the “Relative Growth” value in the assay with Saccharomyces cerevisiae [1], with Saccharomyces cerevisiae [2] and in the assay on Saccharomyces cerevisiae [3] were 0.0859, 0.0887 and 0.1229, respectively.

As to `Cc1ccc(Nc2nc(N)c3ccccc3n2)cc1Cl`, the “Relative Growth” value is given as -0.0022 in the assay on Saccharomyces cerevisiae [1], -0.1031 in the assay on Saccharomyces cerevisiae [2] and -0.1803 with Saccharomyces cerevisiae [3].

On to `CCOc1ccc(C2N(C)c3ccccc3N2C)cc1`, for which the “Relative Growth” value with Saccharomyces cerevisiae [1] is listed as -0.6451; in the assay on Saccharomyces cerevisiae [2] it was -1.0114; with Saccharomyces cerevisiae [3], -1.002.

Regarding `CC(Oc1ccc(NC(=O)c2cccs2)cc1)C(=O)c1ccc(Cl)cc1` (configuration not stated), the “Relative Growth” value in the assay with Saccharomyces cerevisiae [1] was 0.0426; in the assay on Saccharomyces cerevisiae [2] it was 0.1664; with Saccharomyces cerevisiae [3], 0.0184.

For the compound `COc1cc(-c2nc(-c3ccccc3)c(-c3ccccc3)[nH]2)cc(OC)c1O`, the “Relative Growth” value in the assay on Saccharomyces cerevisiae [1] is given as -0.0158; in the assay on Saccharomyces cerevisiae [2] it was 0.0542; with Saccharomyces cerevisiae [3], -0.1558.

In the case of `CCCC(c1nnnn1C1CCCCC1)N1CCN(C(=O)c2ccco2)CC1.Cl` (configuration not stated), the “Relative Growth” value is given as -0.0604 with Saccharomyces cerevisiae [1], 0.0714 with Saccharomyces cerevisiae [2] and 0.0167 in the assay with Saccharomyces cerevisiae [3].

Consider `FC(F)(F)c1cccc(Nc2nc3ccccc3nc2Nc2cccc(C(F)(F)F)c2)c1`, for which the “Relative Growth” value in the assay with Saccharomyces cerevisiae [1] is -0.0449; in the assay on Saccharomyces cerevisiae [2], -0.0009; in the assay with Saccharomyces cerevisiae [3], -0.1177.

Turning to `CC(C)(C)CC(C)(C)NCC(O)COc1ccc2c(c1)CCC2.Cl` (configuration not stated), the “Relative Growth” value in the assay with Saccharomyces cerevisiae [1] was -0.08; in the assay with Saccharomyces cerevisiae [2] it was -0.0891; in the assay on Saccharomyces cerevisiae [3], -0.1886.

Regarding `O=C(CCl)NCCOc1ccc(Cl)cc1Cl`, the results for the “Relative Growth” value with Saccharomyces cerevisiae [1], in the assay on Saccharomyces cerevisiae [2] and in the assay on Saccharomyces cerevisiae [3] were -0.0085, 0.0391 and -0.0052, respectively.

Take `O=C(Nc1ccccc1O)c1ccc(-c2ccc(Cl)cc2Cl)o1`: the entries for the “Relative Growth” value in the assay with Saccharomyces cerevisiae [1], in the assay with Saccharomyces cerevisiae [2] and with Saccharomyces cerevisiae [3] were 0.0802, 0.0136 and -0.098, respectively.

Turning to `COc1ccc(-c2nc(N3CCN(C(=O)C4CCCCC4)CC3)c3c4c(sc3n2)CCCC4)cc1`, the “Relative Growth” value in the assay on Saccharomyces cerevisiae [1] is -0.0342; in the assay on Saccharomyces cerevisiae [2], 0.0845; in the assay with Saccharomyces cerevisiae [3], -0.067.

With `O=C(NCc1ccco1)C1CCN(S(=O)(=O)c2ccc(Cl)cc2)CC1`, the entries for the “Relative Growth” value with Saccharomyces cerevisiae [1], in the assay with Saccharomyces cerevisiae [2] and in the assay on Saccharomyces cerevisiae [3] were -0.0768, -0.224 and -0.0245, respectively.

In the case of `Nc1ccn([C@@H]2O[C@H](CO)[C@@H](O)[C@H]2O)c(=O)n1` [CYTIDINE], the “Relative Growth” value was -0.0768 with Saccharomyces cerevisiae [1], 0.1163 in the assay on Saccharomyces cerevisiae [2] and -0.4063 in the assay on Saccharomyces cerevisiae [3].

As to `O=C(NNc1cc(N2CCCC2)nc(N2CCCC2)n1)c1ccccc1`, the entries for the “Relative Growth” value in the assay with Saccharomyces cerevisiae [1], with Saccharomyces cerevisiae [2] and with Saccharomyces cerevisiae [3] were -0.9952, 0.0342 and -0.0043, respectively.

As for `CCCCNc1nc(NC(C)(C)C)nc(NC(C)(C)C)n1`, the “Relative Growth” value in the assay with Saccharomyces cerevisiae [1] is listed as 0.0174; in the assay on Saccharomyces cerevisiae [2] it was -0.0768; with Saccharomyces cerevisiae [3] it was -0.1542.

`CSc1ccccc1C(=O)Nc1nc(-c2ccccn2)cs1`: the “Relative Growth” value with Saccharomyces cerevisiae [1] is -0.0643; in the assay with Saccharomyces cerevisiae [2] it was -0.0928; in the assay on Saccharomyces cerevisiae [3], -0.2282.

Turning to `COc1ccc(C(=O)Nc2nonc2-c2ccc(OC)c(OC)c2)cc1Cl`, the entries for the “Relative Growth” value in the assay on Saccharomyces cerevisiae [1], in the assay on Saccharomyces cerevisiae [2] and with Saccharomyces cerevisiae [3] were -0.0037, 0.1144 and 0.0586, respectively.

Regarding `COc1ccc(C2NCCc3c2[nH]c2ccccc32)cc1CN1CCN(c2ccc(F)cc2)CC1.Cl` (configuration not stated), the results for the “Relative Growth” value in the assay with Saccharomyces cerevisiae [1], in the assay on Saccharomyces cerevisiae [2] and with Saccharomyces cerevisiae [3] were -0.0229, 0.0397 and -0.0259, respectively.

Take `CCOc1cc2c(cc1OCC)C(c1cc(C)c(O)c(C)c1)NCC2.Cl` (configuration not stated): the entries for the “Relative Growth” value with Saccharomyces cerevisiae [1], in the assay on Saccharomyces cerevisiae [2] and with Saccharomyces cerevisiae [3] were -0.1843, -0.1636 and -0.7495, respectively.

Consider `CN1CCN(c2ncnc3c2[nH]c2ccc(Cl)cc23)CC1`, for which the entries for the “Relative Growth” value in the assay with Saccharomyces cerevisiae [1], in the assay with Saccharomyces cerevisiae [2] and in the assay with Saccharomyces cerevisiae [3] were 0.0011, 0.0494 and 0.0216, respectively.

Take `CCC(c1ccccc1)c1nn2c(-c3cccs3)nnc2s1` (configuration not stated): the “Relative Growth” value in the assay on Saccharomyces cerevisiae [1] is given as -0.0182; in the assay on Saccharomyces cerevisiae [2] it was 0.0181; in the assay on Saccharomyces cerevisiae [3], 0.1287.

Take `CCOC(=O)C1(Cc2ccccc2)CCN(Cc2cccc(OC)c2O)CC1`: the figures for the “Relative Growth” value in the assay with Saccharomyces cerevisiae [1], with Saccharomyces cerevisiae [2] and in the assay with Saccharomyces cerevisiae [3] were -0.0248, -0.0215 and -0.0203, respectively.

In the case of `Cl.Clc1cc(Br)ccc1-c1ccc(CNCC2CCNCC2)o1`, the results for the “Relative Growth” value in the assay on Saccharomyces cerevisiae [1], in the assay with Saccharomyces cerevisiae [2] and with Saccharomyces cerevisiae [3] were 0.004, 0.0133 and -0.083, respectively.

On to `CC(=O)Nc1nnc(SCc2c(C)cc(C(C)(C)C)cc2C)s1`, for which the results for the “Relative Growth” value in the assay with Saccharomyces cerevisiae [1], with Saccharomyces cerevisiae [2] and with Saccharomyces cerevisiae [3] were 0.0168, 0.0621 and 0.0163, respectively.

Regarding `Cc1cc(=O)oc2c1ccc1oc(C(=O)c3ccccc3)c(C)c12`, the “Relative Growth” value with Saccharomyces cerevisiae [1] was 0.0119; with Saccharomyces cerevisiae [2] it was -0.1287; in the assay on Saccharomyces cerevisiae [3] it was -0.3574.

As for `Cc1ccc(S(=O)(=O)c2c(COC(=O)c3cccc(C)c3)c(-c3ccccc3)nn2C)cc1`, the “Relative Growth” value with Saccharomyces cerevisiae [1] is 0.0124; in the assay with Saccharomyces cerevisiae [2], -0.0588; with Saccharomyces cerevisiae [3], -0.0042.

As to `O=C(NC1CCN(Cc2ccccc2)CC1)c1cc(C(=O)NC2CCN(Cc3ccccc3)CC2)cc(C(=O)NC2CCN(Cc3ccccc3)CC2)c1`, the figures for the “Relative Growth” value with Saccharomyces cerevisiae [1], in the assay with Saccharomyces cerevisiae [2] and in the assay on Saccharomyces cerevisiae [3] were -0.0223, 0.0347 and -0.1727, respectively.

For the compound `COc1ccc(C2C(C(=O)Nc3cccc(OC)c3)c3ccccc3C(=O)N2C2CCCCC2)cc1` (configuration not stated), the “Relative Growth” value is listed as -0.0663 in the assay on Saccharomyces cerevisiae [1], 0.0321 with Saccharomyces cerevisiae [2] and -0.1595 in the assay on Saccharomyces cerevisiae [3].

As to `CCCCCCc1cc2cc(-c3nc4ccccc4[nH]3)c(=Nc3ccccc3C)oc2cc1O`, the “Relative Growth” value is given as -0.0113 in the assay on Saccharomyces cerevisiae [1], 0.1107 in the assay on Saccharomyces cerevisiae [2] and -0.1213 in the assay with Saccharomyces cerevisiae [3].

On to `O=C(Nc1ccc(-c2nc3cc(NC(=O)c4ccc(Cl)cc4)ccc3[nH]2)cc1)c1ccc(Cl)cc1`, for which the “Relative Growth” value with Saccharomyces cerevisiae [1] is -0.0297; in the assay on Saccharomyces cerevisiae [2], 0.0064; in the assay on Saccharomyces cerevisiae [3], 0.0694.

On to `CCOC(=O)C1CCN(C(=O)CN2C(=O)c3ccccc3C2c2c[nH]c3ccccc23)CC1` (configuration not stated), for which the “Relative Growth” value with Saccharomyces cerevisiae [1] is reported as -1.0024; in the assay on Saccharomyces cerevisiae [2] it was -0.2514; in the assay with Saccharomyces cerevisiae [3], -0.5143.

Turning to `COc1cc(CNCCc2ccc(Cl)cc2)cc(OC)c1O`, the “Relative Growth” value in the assay on Saccharomyces cerevisiae [1] is 0.0063; in the assay with Saccharomyces cerevisiae [2], 0.0037; with Saccharomyces cerevisiae [3] it was -0.0938.

`CCOc1c(Cl)cc(CNC(C)C(O)c2ccccc2)cc1OC` (configuration not stated): the entries for the “Relative Growth” value in the assay on Saccharomyces cerevisiae [1], in the assay on Saccharomyces cerevisiae [2] and in the assay with Saccharomyces cerevisiae [3] were -0.0562, -0.05 and 0.1383, respectively.

Consider `COc1ccc(C2Sc3ccccc3N=C3C2=C(O)c2ccccc23)cc1` (configuration not stated), for which the entries for the “Relative Growth” value with Saccharomyces cerevisiae [1], with Saccharomyces cerevisiae [2] and in the assay on Saccharomyces cerevisiae [3] were 0.0982, -0.0473 and 0.0327, respectively.

`CN1CCN(c2c3c(c(C#N)c4nc5ccccc5n24)CCC3)CC1`: the results for the “Relative Growth” value with Saccharomyces cerevisiae [1], in the assay on Saccharomyces cerevisiae [2] and in the assay with Saccharomyces cerevisiae [3] were -0.0644, 0.2469 and -0.4878, respectively.

For `O=C1CC(O)(C(F)(F)C(F)(F)F)Oc2ccccc21` (configuration not stated), the “Relative Growth” value is on record as -0.0644 in the assay with Saccharomyces cerevisiae [1], -0.042 with Saccharomyces cerevisiae [2] and -0.6809 in the assay with Saccharomyces cerevisiae [3].

For the compound `c1ccc(CNc2nc(Nc3ccccc3)nc3ccccc23)cc1`, the “Relative Growth” value in the assay with Saccharomyces cerevisiae [1] is listed as -0.0158; with Saccharomyces cerevisiae [2], -0.1327; with Saccharomyces cerevisiae [3], -0.0499.
